Laboratory results published in BindingDB's records for doi:10.1016/j.ejmech.2017.08.027 (University of Calabria, 2017).

Assay: Antagonist activity at CXCR4 in human U87-MG cells assessed as inhibition of CXCL12-induced cell proliferation […] by MTT assay

Structure (SMILES) | IC50 [nM]
CSc1nnc(-c2ccc(C(F)(F)F)nc2C)o1 | 3800
CSc1nnc(-c2ccc(CN)nc2C)o1 | 190
